Test results: US7253177B2, “Synthesis and antimalarial activity of pyrrolo[3,2-f]quinazoline-1,3-diamine derivatives” (United States of America as Represented by the Secretary of …, priority 2004, dated 2007)
Converted amounts (≈) assume the structure as drawn. Read-outs that look alike come from different tables or passages of the source.

Key:
[1] = tested on: Plasmodium falciparum D-6 clone (CDC Sierra Leone I); assay: In vitro antimalarial study, [3H]hypoxanthine uptake, D-6 clone; assay type: cell-based; details: for IC50: Plasmodium falciparum, read-out: IC50 D-6; for IC50 D-6: P. falciparum D-6 clone
Method: (§1) B. Antimalarial Activities: (a). In Vitro Antimalarial Studies. The in vitro assays were conducted by using a modification of the semiautomated microdilution technique of Desjardins et al and Chulay et al.. Four P. falciparum malaria parasite clones, from CDC Indochina III (W-2), CDC Sierra Leone I (D-6), Southeast Asia Isolates (TM91C235) and RCS (Isolates from Brazil) were utilized in susceptibility testing. They were derived by direct visualization and micromanipulation from patient isolates. The W-2 clone is susceptible to mefloquine but resistant to chloroquine, sulfadoxine, pyrimethamine, and quinine, whereas the D-6 clone is naturally resistant to mefloquine but susceptible to chloroquine, sulfadoxine, pyrimethamine and quinine. Test compounds were initially dissolved in DMSO and diluted 400 fold in RPMI 1640 culture medium supplemented with 25 mM Hepes, 32 mM NaHCO3 and 10% Albumax I (Gibco BRL, Grand Island, N.Y.). These solutions were subsequently serially diluted two-fold with a Biomek 1000 (Beckman, Fullerton, Calif.) over 11 different concentrations. The parasites were exposed to serial dilutions of each compound for 48 hrs and incubated at 37° C. with 5% O2, 5% CO2 and 90% N2 prior to the addition of [^3H]hypoxanthine. After a further incubation of 18 hrs, parasite DNA was harvested from each microtiter well using Packard Filtermate 196 Harvester (Meriden, Conn.) onto glass filters. Uptake of [^3H]hypoxanthine was measured with a Packard Topcount Scintillation. Concentration-response data were analyzed by a non-linear regression logistic dose response model and the IC50 values (50% inhibitory concentrations) for each compound were calculated. (Table 3). (b). In Vivo Antimalarial Studies against P. berghei in mice: The in vivo efficacy of the artelinic acid analogs were determined in a modified Thompson test. This test measures the survivability of mice and parasitemia clearance following administration of drug on days 3-5 post infection. In brief, 5×10^6 P. berghei-infected erythrocytes (KBG-173 strain) were inoculated intraperitoneally to female mice that weighed 24-30 g. By day three post-infection, parasitemia ranged from 1.0-3.7%. Each drug, dissolved in 5% sodium bicarbonate, was administered PO twice daily from day 3-5 post-infection. Total doses for each drug ranged from 1.5-384 mg/kg with 8 mice included in each dosage group. The percent suppression of parasitemia in the treated mice compared to the untreated controls was determined for each test compound; the SD-50 (fifty percent suppression dose) and SD-90 were determined from a non-linear regression logistic dose response fit at day 6 parasitemia data. Survival of mice to day 60 post-infection was considered a cure (C). Compounds were considered active (A) when the survival time of the treated mice was greater than twice the control mice, i.e., 12-14 day (Table 4-5). (c). Sporozoite Induced Test Each compound is ground with a mortar & pestle and suspended in 0.5% hydroxyethylcellulose—0.1% Tween 80 for compounds to be administered PO and those given SC are suspended in peanut oil. Each compound is prepared at 3 different dose levels as requested by WRAIR. Compounds are administered either PO or SC to mice once 4 hr before inoculation of sporozoites. Four-week-old male CD-1 mice, purchased from Charles River and weighing 16-17 g, are placed 5 per cage and allowed to acclimate for 4 days before being treated and then inoculated with sporozoites. They are fed food and water ad-lib and maintained at 76° F. with 12 hr light and 12 hr darkness. The cages and water bottles are changed biweekly. The mice are weighed on Days 0, 3 and 6 then biweekly when blood films are taken. Plasmodium yoelii (17×) is used to infect mice that will be used to infect the mosquitoes. Mice are given a single dose of test compound 4 hr before being inoculated intraperitoneally with 2.5×10^5 sporozoites of Plasmodium yoelii on Day 0. […]

[2] = tested on: Plasmodium falciparum W-2 clone (CDC Indochina III); assay: In vitro antimalarial study, [3H]hypoxanthine uptake, W-2 clone; assay type: cell-based; details: for IC50: Plasmodium falciparum, read-out: IC50 W-2; for IC50 W-2: P. falciparum W-2 clone
Method: as §1

[3] = tested on: Plasmodium falciparum RCS (Isolates from Brazil); assay: In vitro antimalarial study, [3H]hypoxanthine uptake, RCS clone; assay type: cell-based; details: P. falciparum RCS clone; for IC50: Plasmodium falciparum
Method: as §1

[4] = tested on: Plasmodium falciparum TM91C235 (Southeast Asia Isolates); assay: In vitro antimalarial study, [3H]hypoxanthine uptake, TM91C235 clone; assay type: cell-based; details: for IC50: Plasmodium falciparum, read-out: IC50 TM91C235; for IC50 TM91C235: P. falciparum TM91C235 clone
Method: as §1

[5] = tested on: Plasmodium berghei (KBG-173 strain); assay type: in vivo; details: mice, oral
Method: as §1

[6] = tested on: Plasmodium yoelii (17x) sporozoites; assay: Sporozoite induced test in mice; assay type: in vivo; details: P. yoelii, mice, oral
Method: as §1, with “mosquitoes. […] Whole body weights” for “mosquitoes. Mice”, “are taken” for “are given a single dose of test compound 4 hr before being inoculated intraperitoneally with 2.5×10^5 sporozoites of Plasmodium yoelii”, “Day 0 and Day 6 then twice a week for 31 days. A blood film is taken on Day 5 and then twice a week for 31 days. Mice loosing >20% of their body weight will be sacrificed.” for “Day 0.”

Plasmodium berghei = assay: Antimalarial activity against Plasmodium berghei in mice by subcutaneous injection; assay type: in vivo

CC(=O)Nc1nc(N)nc2ccc3c(ccn3Cc3ccccc3C(F)(F)F)c12 [Compound 3a]
IC50 [1]: 0.0097 ng/mL (≈ 0.0243 nM)
IC50 [2]: 0.0186 ng/mL (≈ 0.0466 nM)
IC50 [3]: 0.0096 ng/mL (≈ 0.024 nM)
IC50 [4]: 0.0206 ng/mL (≈ 0.0516 nM)

Nc1nc(N2C(=O)CCC2=O)nc2ccc3c(ccn3Cc3ccccc3C(F)(F)F)c12 [Compound 3f, 1-Amino-3-(1-pyrrolidine-2,5-dione)-7-(2-trifluoromethyl-benzyl)-7H-pyrrolo[3,2-f]quinazoline]
IC50 [1]: < 0.488 ng/mL
IC50 [2]: < 0.488 ng/mL

Nc1nc(O)c2c(ccc3c2ccn3Cc2ccccc2C(F)(F)F)n1 [Compound 4, 1-hydroxy-3-amino-7-(2-trifluromethyl)benzyl-7H-pyrrolo [3,2-f]quinazoline]
IC50 [1]: 7.24 ng/mL (≈ 20.2 nM)
IC50 [2]: 53.9 ng/mL (≈ 150 nM)
IC50 [4]: 83.4 ng/mL (≈ 233 nM)
oral dose range giving 100% cure against P. berghei ([5]; Thompson test): 80 to 180 mg/kg
# Mice Alive Day 30/Total ([5]; 320 mg/kg/day): 1/5
# Mice Dead/Day Died ([5]; 40-10 mg/kg/day): deaths in each group
# Mice Alive Day 30/Total ([5]; 160-80 mg/kg/day): 5/5
# Mice Dead/Day Died ([5]; 160-80 mg/kg/day): none

COc1cc(C)c2c(Oc3cccc(C(F)(F)F)c3)c(OC)cc(NC(C)CCCN)c2n1 (stereo not drawn) [Tefenoquine, reference compound]
Number of Mice Cured ([6]; 1.25 mg/kg): 2/5
Number of Mice Cured ([6]; 2.5 mg/kg): 4/5
Number of Mice Cured ([6]; 5 mg/kg): 5/5
Number of Mice Cured ([6]; 10 mg/kg): 5/5

CCOC(=O)Nc1nc(N(C(=O)OCC)C(=O)OCC)c2c(ccc3c2ccn3Cc2ccccc2C(F)(F)F)n1 [Compound 2c]
IC50 D-6 [1]: >250 ng/mL
IC50 W-2 [2]: >250 ng/mL
IC50 RCS [3]: >250 ng/mL
IC50 TM91C235 [4]: >250 ng/mL
# Mice Alive Day 30/Total ([5]; 80-1.25 mg/kg/day): 5/5
# Mice Dead/Day Died ([5]; 80-1.25 mg/kg/day): None

CC(C)(C)OC(=O)N(C(=O)OC(C)(C)C)c1nc(N(C(=O)OC(C)(C)C)C(=O)OC(C)(C)C)c2c(ccc3c2ccn3Cc2ccccc2C(F)(F)F)n1 [Compound 2j]
# Mice Alive Day 31/Total (Plasmodium berghei; 2.5 mg/kg/day): 2/7
# Mice Alive Day 31/Total (Plasmodium berghei; 10 mg/kg/day): 6/7
# Mice Dead/Day Died (Plasmodium berghei; 10 mg/kg/day): 1/24
# Mice Alive Day 31/Total (Plasmodium berghei; 20 mg/kg/day): 7/7
# Mice Dead/Day Died (Plasmodium berghei; 20 mg/kg/day): none
# Mice Alive Day 31/Total (Plasmodium berghei; 40 mg/kg/day): 5/7
# Mice Dead/Day Died (Plasmodium berghei; 40 mg/kg/day): 2/19

CCOC(=O)Nc1nc(N)nc2ccc3c(ccn3Cc3ccccc3C(F)(F)F)c12 [Compound 2a]
IC50 D-6 [1]: 20.709 ng/mL (≈ 48.2 nM)
IC50 W-2 [2]: >250 ng/mL
IC50 RCS [3]: >250 ng/mL
IC50 TM91C235 [4]: >250 ng/mL
# Mice Alive Day 31/Total (Plasmodium berghei; 40 mg/kg/day): 5/7
# Mice Dead/Day Died (Plasmodium berghei; 40 mg/kg/day): 2/17
# Mice Alive Day 31/Total (Plasmodium berghei; 20-2.5 mg/kg/day): 7/7
# Mice Dead/Day Died (Plasmodium berghei; 20-2.5 mg/kg/day): none
# Mice Dead/Day Died ([5]; 40-2.5 mg/kg/day): Death in each dose

O=C1CCC(=O)N1c1nc(N2C(=O)CCC2=O)c2c(ccc3c2ccn3Cc2ccccc2C(F)(F)F)n1 [Compound 3g, 1,3-Bis-(1-pyrrolidine-2,5-dione)-7-(2-trifluoromethyl)benzyl-7H-pyrrolo[3,2-f]quinazoline]
IC50 D-6 [1]: 0.1284 ng/mL (≈ 0.246 nM)
IC50 W-2 [2]: 0.1284 ng/mL (≈ 0.246 nM)
IC50 RCS [3]: 0.2571 ng/mL (≈ 0.493 nM)
IC50 TM91C235 [4]: 0.4021 ng/mL (≈ 0.771 nM)
# Mice Alive Day 30/Total ([5]; 80 mg/kg/day): 2/5
# Mice Alive Day 30/Total ([5]; 40-10 mg/kg/day): 0/5
# Mice Dead/Day Died ([5]; 40-10 mg/kg/day): deaths in each group

CC(=O)Nc1nc(N(C(C)=O)C(C)=O)c2c(ccc3c2ccn3Cc2ccccc2C(F)(F)F)n1 [Compound 3d]
# Mice Dead/Day Died ([5]; 10-0.625 mg/kg/day): death in each group
# Mice Alive Day 30/Total ([5]; 220-40 mg/kg/day): 5/5
# Mice Dead/Day Died ([5]; 220-40 mg/kg/day): None

CC(=O)N(C(C)=O)c1nc(N)nc2ccc3c(ccn3Cc3ccccc3C(F)(F)F)c12 [Compound 3b]
IC50 [1]: 0.0101 ng/mL (≈ 0.0229 nM)
IC50 [2]: 0.0183 ng/mL (≈ 0.0415 nM)
IC50 [3]: 0.0116 ng/mL (≈ 0.0263 nM)
IC50 [4]: 0.0212 ng/mL (≈ 0.048 nM)

CC(C)(C)OC(=O)Nc1nc(N(C(=O)OC(C)(C)C)C(=O)OC(C)(C)C)c2c(ccc3c2ccn3Cc2ccccc2C(F)(F)F)n1 [Compound 2i]
IC50 D-6 [1]: 1.9252 ng/mL (≈ 2.93 nM)
IC50 W-2 [2]: 33.569 ng/mL (≈ 51 nM)
IC50 RCS [3]: 26.380 ng/mL (≈ 40.1 nM)
IC50 TM91C235 [4]: 97.708 ng/mL (≈ 149 nM)
# Mice Alive Day 31/Total (Plasmodium berghei; 40-2.5 mg/kg/day): 7/7
# Mice Dead/Day Died (Plasmodium berghei; 40-2.5 mg/kg/day): none

CC(C)(C)OC(=O)N(C(=O)OC(C)(C)C)c1nc(N)nc2ccc3c(ccn3Cc3ccccc3C(F)(F)F)c12 [Compound 2h]
IC50 D-6 [1]: 0.2549 ng/mL (≈ 0.457 nM)
IC50 W-2 [2]: 3.6678 ng/mL (≈ 6.58 nM)
IC50 RCS [3]: 5.2370 ng/mL (≈ 9.39 nM)
IC50 TM91C235 [4]: 26.366 ng/mL (≈ 47.3 nM)
# Mice Alive Day 31/Total (Plasmodium berghei; 40-2.5 mg/kg/day): 7/7
# Mice Dead/Day Died (Plasmodium berghei; 40-2.5 mg/kg/day): none
# Mice Alive Day 30/Total ([5]; 1.25 mg/kg/day): 2/5
# Mice Alive Day 30/Total ([5]; 80-2.5 mg/kg/day): 5/5
# Mice Dead/Day Died ([5]; 80-2.5 mg/kg/day): None
